According to PubChem BioAssay AID1963964 (Molecular Pharmacology Branch, DTP, NCI, 2024):
pIC50: −log10 of the molar value.

Test system: 997726-040-R-J2-PDC tumor spheroids, viability
Assay: Anticancer human tumor 997726-040-R-J2-PDC patient-derived squamous cell lung carcinoma cell line growth inhibition [PI3K]
Details: spheroids with HUVEC and MSC; for pIC50: curve of first compound; for viability, T/C: stronger effect = lower value
From the text: Combinatorial screen of targeted agents with the PI3K inhibitors inavolisib, alpelisib, duvelisib, and copanlisib in multi-cell type tumor spheroids
A high-throughput screen of multi-cell type tumor spheroids was designed to identify active combinations of targeted small molecules and PI3K pathway inhibitors. Complex spheroids include a stromal component modeled by human endothelial cells (HUVEC) and fibroblasts modeled by human mesenchymal stem cells (MSCs). The concentration ranges selected for each drug and investigational agent were based upon clinically achievable concentrations if the clinical Cmax of the agent was known.
Compounds. The drugs and investigational agents: inavolisib (NSC800729), alpelisib (NSC765974), duvelisib (NSC772469), copanlisib (NSC816437), ipatasertib (NSC767898), afuresertib (NSC778305), talazoparib (NSC767125), sapanisertib (NSC764658), selumetinib (NSC741078), tovorafenib (DAY101, NSC766906), vemurafenib (NSC761431), ravoxertinib (NSC781343), sotorasib (NSC818433), MRTX1133 (NSC 836407), abemaciclib (NSC 768073), palbociclib (NSC758247), venetoclax (NSC 766270), SY5609 (NSC837396), enzalutamide (NSC755605), and darolutamide (NSC825331), were obtained from the National Cancer Institute (NCI) Developmental Therapeutics Program Chemical Repository. The FDA-approved anticancer drug set is available from the NCI Developmental Therapeutics Program. […] The stock solutions were prepared in dimethyl sulfoxide (DMSO, Sigma-Aldrich, St. Louis, MO, cat. D2650) at 800-fold the tested concentration and stored at -70 degrees C prior to their use. All drugs and investigational agents were tested over a range starting from a high concentration at or near the clinical Cmax and decreasing in half-log increments. If the clinical Cmax for an agent had not been determined, the highest concentration tested was 10 microM.
Cell Culture. All cells were maintained in an incubator at 37 degrees C and 5% CO2 with 95% humidity. The PDC lines were cultured according to standard operating procedures established by the NCI PDMR (https://pdmr.cancer.gov/sops/default.htm). All PDCs were thawed and cultured in Matrigel-coated flasks prepared with a working solution of 1X Ham's F-12 nutrient mix, without supplementation (Invitrogen, Waltham, MA, cat. 11765054), 100 U/mL penicillin-streptomycin (Invitrogen, cat. 15140122), and 2.5% Matrigel (Corning Inc., Corning, NY, cat. 354248) for the first three passages. The 354836-022-R-J1-PDC, 475296-252-R-J1-PDC, and 997726-040-R-J2-PDC lines were cultured in 6A media, which includes advanced DMEM/F-12 (Thermo Fisher Scientific, cat. 12634028), 10 mM HEPES (Thermo Fisher Scientific, cat. 15630080), 1X GlutaMAX supplement (Thermo Fisher Scientific, cat. 35050061), 0.1 mg/mL primocin (InvivoGen, San Diego, CA, cat. ant-pm-2), 10% defined fetal bovine serum, heat inactivated (HyClone Laboratories Inc., Logan, UT, cat. SH30070.03HI), 50% L-WRN conditioned media (ATCC, cat. CRL-3276), 1.25 mM N-Acetyl-L-cysteine (Sigma-Aldrich, cat. A9165), 10 mM nicotinamide (Sigma-Aldrich, cat. N0636), 1X B-27 supplement (Thermo Fisher Scientific, cat. 17504044), 1X N-2 supplement (Thermo Fisher Scientific, cat. 17502048), and 10 microM Y-27632 dihydrochloride (Tocris Bioscience, Bristol, United Kingdom, cat. 1254). The 624824-186-R-J2-PDC line was cultured in 6C/Colon 1B media, which includes all 6A media components plus 50 ng/mL human EGF recombinant protein (Thermo Fisher Scientific, cat. PHG0311). […]

[1] = second compound 0.00316 µM, first compound 0.0316 µM
[2] = second compound 0.00316 µM, first compound 0.1 µM
[3] = second compound 0.01 µM, first compound 0.0316 µM
[4] = second compound 0.01 µM, first compound 0.1 µM
[5] = second compound 0.0316 µM, first compound 0.0316 µM
[6] = second compound 0.0316 µM, first compound 0.1 µM
[7] = second compound 0.1 µM, first compound 0.0316 µM
[8] = second compound 0.1 µM, first compound 0.1 µM
[9] = second compound 0.316 µM, first compound 0.0316 µM
[10] = second compound 0.316 µM, first compound 0.1 µM
[11] = second compound 1 µM, first compound 0.0316 µM
[12] = second compound 1 µM, first compound 0.1 µM
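Note: spheroids exposed to compounds for seven days before readout.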

With `CC(C)n1nc(-c2ccc3oc(N)nc3c2)c2c(N)ncnc21` + CC(Nc1ccc2c(c1)OCCn1cc(N3C(=O)OCC3C(F)F)nc1-2)C(N)=O the pIC50 (second compound 0.00316 µM) was 7.76, the pIC50 (second compound 0.01 µM) was 7.78 and the pIC50 (second compound 0.0316 µM) was 8.49. It also gave a pIC50 (second compound 0.1 µM) of over 9.50, a pIC50 (second compound 0.316 µM) of over 9.50 and a pIC50 (second compound 1 µM) of over 9.50. The viability, T/C (second compound 0.00316 µM, first compound 0.000316 µM) was 79%, the viability, T/C (second compound 0.00316 µM, first compound 0.001 µM) was 88.2% and the viability, T/C (second compound 0.00316 µM, first compound 0.00316 µM) was 73.5%. The viability, T/C (second compound 0.00316 µM, first compound 0.01 µM) was 59.8%, the viability, T/C [1] was 38.9% and the viability, T/C [2] was 7.14%. It also gave a viability, T/C (second compound 0.01 µM, first compound 0.000316 µM) of 74.8%, a viability, T/C (second compound 0.01 µM, first compound 0.001 µM) of 68.5% and a viability, T/C (second compound 0.01 µM, first compound 0.00316 µM) of 71.3%. It also gave a viability, T/C (second compound 0.01 µM, first compound 0.01 µM) of 59.1%, a viability, T/C [3] of 37.4% and a viability, T/C [4] of 6.85%. The viability, T/C (second compound 0.0316 µM, first compound 0.000316 µM) was 54.6%, the viability, T/C (second compound 0.0316 µM, first compound 0.001 µM) was 61.3% and the viability, T/C (second compound 0.0316 µM, first compound 0.00316 µM) was 48.7%. It also gave a viability, T/C (second compound 0.0316 µM, first compound 0.01 µM) of 38.6%, a viability, T/C [5] of 26.6% and a viability, T/C [6] of 6.47%. It also gave a viability, T/C (second compound 0.1 µM, first compound 0.000316 µM) of 44.2%, a viability, T/C (second compound 0.1 µM, first compound 0.001 µM) of 39.5% and a viability, T/C (second compound 0.1 µM, first compound 0.00316 µM) of 42.5%. For the same compound, the viability, T/C (second compound 0.1 µM, first compound 0.01 µM) was 33%, the viability, T/C [7] was 20.9% and the viability, T/C [8] was 4.52%. The viability, T/C (second compound 0.316 µM, first compound 0.000316 µM) was 32.5%, the viability, T/C (second compound 0.316 µM, first compound 0.001 µM) was 33.9% and the viability, T/C (second compound 0.316 µM, first compound 0.00316 µM) was 27.9%. The viability, T/C (second compound 0.316 µM, first compound 0.01 µM) was 24.9%, the viability, T/C [9] was 13.5% and the viability, T/C [10] was 3.29%. It also gave a viability, T/C (second compound 1 µM, first compound 0.000316 µM) of 29.1%, a viability, T/C (second compound 1 µM, first compound 0.001 µM) of 26.9% and a viability, T/C (second compound 1 µM, first compound 0.00316 µM) of 21.4%. The viability, T/C (second compound 1 µM, first compound 0.01 µM) was 20.6%, the viability, T/C [11] was 9.52% and the viability, T/C [12] was 2.78%.

With `CCCS(=O)(=O)Nc1ccc(F)c(C(=O)c2c[nH]c3ncc(-c4ccc(Cl)cc4)cc23)c1F` + CC(Nc1ccc2c(c1)OCCn1cc(N3C(=O)OCC3C(F)F)nc1-2)C(N)=O the pIC50 (second compound 0.00316 µM) was 5.18, the pIC50 (second compound 0.01 µM) was 5.21 and the pIC50 (second compound 0.0316 µM) was 5.30. For the same compound, the pIC50 (second compound 0.1 µM) was 5.46, the pIC50 (second compound 0.316 µM) was over 7.50 and the pIC50 (second compound 1 µM) was over 7.50. The viability, T/C [1] was 83.8%, the viability, T/C [2] was 101% and the viability, T/C (second compound 0.00316 µM, first compound 0.316 µM) was 98.2%. The viability, T/C (second compound 0.00316 µM, first compound 1 µM) was 108%, the viability, T/C (second compound 0.00316 µM, first compound 3.16 µM) was 107% and the viability, T/C (second compound 0.00316 µM, first compound 10 µM) was 20.9%. The viability, T/C [3] was 76.5%, the viability, T/C [4] was 94.7% and the viability, T/C (second compound 0.01 µM, first compound 0.316 µM) was 90.7%. The viability, T/C (second compound 0.01 µM, first compound 1 µM) was 90.3%, the viability, T/C (second compound 0.01 µM, first compound 3.16 µM) was 97.1% and the viability, T/C (second compound 0.01 µM, first compound 10 µM) was 21.8%. For the same compound, the viability, T/C [5] was 65.1%, the viability, T/C [6] was 64.1% and the viability, T/C (second compound 0.0316 µM, first compound 0.316 µM) was 72.4%. It also gave a viability, T/C (second compound 0.0316 µM, first compound 1 µM) of 72%, a viability, T/C (second compound 0.0316 µM, first compound 3.16 µM) of 70.3% and a viability, T/C (second compound 0.0316 µM, first compound 10 µM) of 21.8%. It also gave a viability, T/C [7] of 54.6%, a viability, T/C [8] of 53.1% and a viability, T/C (second compound 0.1 µM, first compound 0.316 µM) of 49.4%. It also gave a viability, T/C (second compound 0.1 µM, first compound 1 µM) of 51.9%, a viability, T/C (second compound 0.1 µM, first compound 3.16 µM) of 52.9% and a viability, T/C (second compound 0.1 µM, first compound 10 µM) of 22.6%. It also gave a viability, T/C [9] of 35.6%, a viability, T/C [10] of 36.8% and a viability, T/C (second compound 0.316 µM, first compound 0.316 µM) of 40.1%. For the same compound, the viability, T/C (second compound 0.316 µM, first compound 1 µM) was 43.6%, the viability, T/C (second compound 0.316 µM, first compound 3.16 µM) was 39.8% and the viability, T/C (second compound 0.316 µM, first compound 10 µM) was 17.3%. The viability, T/C [11] was 35.6%, the viability, T/C [12] was 28.7% and the viability, T/C (second compound 1 µM, first compound 0.316 µM) was 29.8%. The viability, T/C (second compound 1 µM, first compound 1 µM) was 32.5%, the viability, T/C (second compound 1 µM, first compound 3.16 µM) was 30.9% and the viability, T/C (second compound 1 µM, first compound 10 µM) was 16.1%.
